From patent US12398110B2, “Second generation inhibitors of mitochondrial permeability transition pore with improved plasma stability” (Oregon Health & Science University, priority 2019, dated 2025)

Experiments:
HeLa cells = test: Oxygen consumption rate of HeLa cell monolayers (Seahorse XF24); format: cell-based; details: ~2 h treatment
Text: A thorough evaluation of toxicity is critical for advancing TR001 to in vivo studies. […] To more thoroughly examine mitochondrial toxicity, we analyzed oxygen consumption rates (OCRs) using the Seahorse XF24 extracellular flux analyzer. This allowed us to assess the effects of TR001 on mitochondrial respiration and ATP synthesis. […] Consequently respiratory control ratios (i.e., the ratios between ADP-stimulated and basal respiration) were not affected across the concentrations tested (FIG. 5B). Complex III inhibitor antimycin A shuts down the electron transport chain at the bc1 complex and was used to account for oxygen leak.
Measurement of respiration. Mitochondrial oxygen consumption of isolated mitochondria or HeLa cell monolayer was assessed with the Seahorse Extracellular Flux Analyzer XF24 (Seahorse Bioscience, Billerica, MA, USA). Isolated mouse liver mitochondria: Mitochondrial assay solution contained 220 mm mannitol, 70 mm sucrose, 25 mm MOPS-Tris, 10 mm Pi-Tris, 5 mm MgCl2, 1 mm EGTA-Tris, 0.2% fatty acid free BSA, 5 mm succinate and 2 μm rotenone, pH 7.4. Mitochondria (5 μg, suspended in 50 μL mitochondrial assay solution) were added to each well of an XF24 cell culture microplate, centrifuged at 2000 g for 20 min at 4° C. and then supplemented with 450 μL of mitochondrial assay solution containing 4 mm ADP to initiate the experiments. […]

[1] = Plasma stability determination in mouse plasma; format: in vitro ADME
Method: Plasma stability determination. The degradation of TR001 in the presence of mouse plasma (from Innovative Research) was used to predict the plasma stability of the compound to esterase catalyzed hydrolysis. A positive control for plasma cholinesterase, propantheline bromide, was included in all assays. Briefly, murine plasma was incubated with 1 μm TR001. Aliquots were removed at t=0, 5, 15, 30, and 60 and 120 min and quenched with acetonitrile containing structurally related compound (TR073) as the internal standard. The amount of TR001 remaining in the supernatant was assessed by LC-MS/MS in multiple reaction monitoring mode (MRM) using a 4000 QTRAP (SCIEX) with electrospray ionization source. The instrument was operated in negative mode with source parameters: source voltage […], GS1 50, GS2 50, CUR 30, TEM 650 and CAD gas MED. Optimal MRM transitions were obtained by direct infusion of the pure compound into the source. The mass spectrometer was interfaced to a Shimadzu (Columbia, MD) SIL-20AC XR auto-sampler maintained at 35° C. followed by 2 LC-20AD XR LC pumps. The internal standard and compound of interest were resolved using a Gemini-NX C18 50×2.1 mm column (Phenomenex) with 0.1% formic acid (solvent A) and 0.1% formic acid in acetonitrile (solvent B). The injection volume was 10 μL at a flow rate of 0.75 mL/min. The gradient elution was 10% B to 95% B over 5 min and held at 95% for 1 min before returning to start conditions. The column was maintained at 40° C. using a Shimadzu CTO-20AC column oven. Data were acquired using Analyst 1.6.2 and analyzed using Multiquant 3.0.1 software. The first-order rate constant for substrate depletion was determined from a linear least squares fit of the natural log of the percent parent compound remaining versus time. The rate constant was used to calculate the plasma half-life as an indicator of stability.

[2] = system: col6a1 zebrafish morphants; test: Spontaneous coiling events in col6a1 zebrafish morphants; format: in vivo; details: 24 hpf, 3 hours of treatment, 0.1, 1 or 10 μm
Method: Zebrafish embryos were injected with col6a1 morpholino at the 1-cell stage, dechorionated at 20 hpf and treated at 21 hpf with 0.1, 1 or 10 μm of either TR001 or 63. DMSO-treated embryos injected with a scrambled morpholino were used as a control. […] It should be noted that in these protocols, embryos were exposed to drugs for a longer period of time than in the spontaneous coiling experiments. This difference may help to explain why TR001 was as effective at 0.1 μm as it was at 1 and 10 μm.
(§1) Morpholino antisense injection and treatment. Knock-down of col6a1 gene expression was obtained with a previously published morpholino ^[25] with sequence GAGAGCGGAAGACGAACCTTCATTC (SEQ ID NO: 2; GeneTools, Inc.). A control morpholino with no sequence homology in the zebrafish genome was used in parallel (CCTCTTACCTCAGTTACAATTTATA; SEQ ID NO: 3). […]
Motor activity. The number of spontaneous coiling events performed in 15 seconds by single zebrafish embryos was recorded at 24 hpf by light microscopy. Touch-evoked escape responses were recorded at 48 hpf by observing the ability of zebrafish embryos to escape after a tail-touch with a little tip. […]

[3] = system: col6a1 zebrafish morphants; test: Birefringence (muscle structure) in col6a1 zebrafish morphants; format: in vivo; details: 48 hpf
Method: Muscle structure was assessed by birefringence analysis at 48 hpf, a time when muscle tissue is fully developed and organized muscle fibers start to show anisotropic features. A high percentage of severe birefringence abnormality (>75%, FIG. 6C) was detected in col6a1 morphants, indicating major defects of muscle fiber development and organization.
as §1, with “3). Zebrafish eggs from wild-type matings were injected at the 1-2 cell stage with approximately 10 nL of 0.1 mm morpholino solution (corresponding to 4 ng of morpholino) using a WPI pneumatic PicoPump PV820 injector (World Precision Instruments, Inc.).” for “3).”
Birefringence. Muscle structure was monitored by birefringence analysis, taking advantage of muscle anisotropy, which is the ability of muscle fibers to refract polarized light. […] With this set-up, light refracted by muscle fibers (due to the pseudo-crystalline array of sarcomeres) is transmitted and analyzed. Integrated area of birefringence was calculated using ImageJ software. […]

With Cc1ccc(Cl)cc1NC(=O)c1cn(-c2ccc(F)c(O)c2)nn1 [TR001, N-(5-chloro-2-methylphenyl)-1-(4-fluoro-3-hydroxyphenyl)-1H-1,2,3-triazole-4-carboxamide] the “mitochondrial dysfunction (OCR) in intact cells” value (HeLa cells) was “did not cause mitochondrial dysfunction”, the “fold increase in plasma stability compared to 63” value ([1]; TR001 vs 63) was 47 fold and the half-life at 1 µM ([1]; mouse, read-out: Mouse Plasma t1/2) was 16.5 h. The spontaneous coiling events [2] was “partially rescued the defect” and the “muscle structure by birefringence” value [3] was “significantly rescued”.
